The results in this text go back to patent US8362065B2, “Carbazole carboxamide compounds useful as kinase inhibitors” (Bristol-Myers Squibb Company, priority 2008, dated 2013).

Molecules are shown by their SMILES.

T1 sequence (Q06187 whole entry): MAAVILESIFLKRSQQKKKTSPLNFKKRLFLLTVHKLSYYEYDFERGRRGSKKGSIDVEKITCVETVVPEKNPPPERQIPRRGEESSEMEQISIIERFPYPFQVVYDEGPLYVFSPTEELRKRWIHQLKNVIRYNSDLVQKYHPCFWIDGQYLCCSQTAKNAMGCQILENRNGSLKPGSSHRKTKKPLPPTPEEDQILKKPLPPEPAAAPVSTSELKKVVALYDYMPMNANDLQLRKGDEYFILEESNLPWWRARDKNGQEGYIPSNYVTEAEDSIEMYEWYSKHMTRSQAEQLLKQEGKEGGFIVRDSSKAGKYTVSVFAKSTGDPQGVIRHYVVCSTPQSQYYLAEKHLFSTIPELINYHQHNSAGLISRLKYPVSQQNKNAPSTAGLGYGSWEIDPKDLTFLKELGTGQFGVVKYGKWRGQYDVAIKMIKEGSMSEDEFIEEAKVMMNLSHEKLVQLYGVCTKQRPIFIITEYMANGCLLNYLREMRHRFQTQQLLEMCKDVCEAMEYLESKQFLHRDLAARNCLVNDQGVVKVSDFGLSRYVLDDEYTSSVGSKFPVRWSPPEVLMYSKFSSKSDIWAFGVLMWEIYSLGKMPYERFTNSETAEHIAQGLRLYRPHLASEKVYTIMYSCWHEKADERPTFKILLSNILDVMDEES

The test system of the first experiment is Ramos RA1 B cells. In words: Ramos FLIPR Assay. The experiment is classed as cell-based. The note with it: goat anti-human IgM 2.5 μg/mL, peak intracellular calcium, read-out: IC50 for Inhibition of Ramos FLIPR assay. A general note: Calcium assays in cells follow changes in intracellular calcium, usually with a dye or a luminescent sensor.
For `CN1CCN(C(=O)c2ccc3c(c2)[nH]c2c(C(N)=O)ccc(-c4c(F)cc(NC(=O)c5ccc(F)cc5)cc4F)c23)CC1` [Example 5-48], the IC50 came out at 1400 nM.
For `Cc1ccc(NC(=O)Nc2cccc(-c3ccc(C(N)=O)c4[nH]c5cc(C(=O)N6CCN(C)CC6)ccc5c34)c2C)cc1C` [Example 8-1, 4-(3-(3-(3,4-dimethylphenyl)ureido)-2-methylphenyl)-7-(4-methylpiperazine-1-carbonyl)-9H-carbazole-1-carboxamide], the half-inhibitory concentration (IC50) is 5400 nM.
Same read-out and setting: to `Cc1c(Nc2ncnc3cc(Cl)ccc23)cccc1-c1ccc(C(N)=O)c2[nH]c3cc(C(=O)N4CCN(C)CC4)ccc3c12` [Example 11-6, 4-(3-(7-chloroquinazolin-4-ylamino)-2-methylphenyl)-7-(4-methylpiperazine-1-carbonyl)-9H-carbazole-1-carboxamide] belongs 280 nM.

A further experiment concerns the target T1, human recombinant Btk (Homo sapiens, UniProt Q06187).
T1 construct: purchased Invitrogen Corporation
In words: Human Recombinant Btk Enzyme Assay. In kind it is biochemical. The note with it: human recombinant Btk 1 nM, ATP 20 μM, 60 min at room temperature; read-out: IC50 for Inhibition of Btk.
Turning to `Cc1c(N)cccc1-c1ccc(C(N)=O)c2[nH]c3c(c12)CCC(NC(=O)OCc1ccccc1)C3` (stereo not shown) [Example 51-1, benzyl 5-(3-amino-2-methylphenyl)-8-carbamoyl-2,3,4,9-tetrahydro-1H-carbazol-2-ylcarbamate], the IC50 amounted to 400 nM.
Still for that read-out and setting: to `Cc1c(-c2ccc(C(N)=O)c3[nH]c4cc(NC(=O)OCc5ccccc5)ccc4c23)cccc1N1Cc2cc(C(C)(C)C)ccc2C1=O` [Example 51-4, benzyl 5-(3-(5-tert-butyl-1-oxoisoindolin-2-yl)-2-methylphenyl)-8-carbamoyl-9H-carbazol-2-ylcarbamate] belongs 1600 nM; to `Cc1c(NC(=O)c2ccc(F)cn2)cccc1-c1ccc(C(N)=O)c2[nH]c3cc(NC(=O)OCc4ccccc4)ccc3c12` [Example 52-1, benzyl 8-carbamoyl-5-(3-(5-fluoropicolinamido)-2-methylphenyl)-9H-carbazol-2-ylcarbamate], 520 nM; to `Cc1c(NC(=O)c2ccccn2)cccc1-c1ccc(C(N)=O)c2[nH]c3c(c12)CCC(NC(=O)OCc1ccccc1)C3` (stereo not shown) [Example 52-2, benzyl 8-carbamoyl-5-(2-methyl-3-(picolinamido)phenyl)-2,3,4,9-tetrahydro-1H-carbazol-2-ylcarbamate], 520 nM.
Consider `Cc1c(NC(=O)c2ccc(F)cc2)cccc1-c1ccc(C(N)=O)c2[nH]c3cc(N(Cc4ccccc4)Cc4ccccc4)ccc3c12` [Example 54-7, 7-(dibenzylamino)-4-(3-(4-fluorobenzamido)-2-methylphenyl)-9H-carbazole-1-carboxamide], for which the 50% inhibitory concentration (IC50) is 830 nM.
Still for that read-out and setting: to `Cc1c(NC(=O)c2ccc(F)cc2)cccc1-c1ccc(C(N)=O)c2[nH]c3cc(NC(=O)[C@H](C)N)ccc3c12` [Example 57-3, 7-((S)-2-aminopropanamido)-4-(3-(4-fluorobenzamido)-2-methylphenyl)-9H-carbazole-1-carboxamide] belongs 2.1 nM; to `Cc1c(NC(=O)c2ccc(F)cc2)cccc1-c1ccc(C(N)=O)c2[nH]c3cc(NC(=O)Cc4ccncc4)ccc3c12` [Example 57-13], 15 nM.
Still for that read-out and setting: in the case of `Cc1c(NC(=O)c2ccc(F)cc2)cccc1-c1ccc(C(N)=O)c2[nH]c3cc(NC(=O)CCCN4CCOCC4)ccc3c12` [Example 57-16] it was 2.1 nM.
Same read-out and setting: in the case of `Cc1c(NC(=O)c2ccc(F)cc2)cccc1-c1ccc(C(N)=O)c2[nH]c3cc(NC(=O)CCN4CCOCC4)ccc3c12` [Example 57-18] it was 2.2 nM.
Consider `Cc1c(NC(=O)c2ccc(F)cc2)cccc1-c1ccc(C(N)=O)c2[nH]c3cc(NC(=O)c4ccc(C#N)cc4)ccc3c12` [Example 57-20], for which the IC50 was 15 nM.
Turning to `Cc1c(NC(=O)c2ccc(F)cc2)cccc1-c1ccc(C(N)=O)c2[nH]c3cc(NC(=O)CN)ccc3c12` [Example 57-37], the IC50 was 1.8 nM.
Still for that read-out and setting: in the case of `Cc1c(NC(=O)c2nccn2C)cccc1-c1ccc(C(N)=O)c2[nH]c3cc(NC(=O)NC(C)C)ccc3c12` [Example 60-1, 7-(3-isopropylureido)-4-(2-methyl-3-(1-methyl-1H-imidazole-2-carboxamido)phenyl)-9H-carbazole-1-carboxamide] it was 18 nM; in that of `Cc1c(NC(=O)c2ccc(F)cc2)cccc1-c1ccc(C(N)=O)c2[nH]c3cc(NC4CCN(C)CC4)ccc3c12` [Example 61-2], 2.2 nM.
Still for that read-out and setting: to `Cc1ccc2c(c1)CN(c1cncc(-c3ccc(C(N)=O)c4[nH]c5cc(NC(C)C)ccc5c34)c1C)C2=O` [Example 66-2, 7-(isopropylamino)-4-(4-methyl-5-(5-methyl-1-oxoisoindolin-2-yl)pyridin-3-yl)-9H-carbazole-1-carboxamide] belongs 16 nM; to `Cc1ccc2c(c1)C(=O)N(c1cccc(-c3ccc(C(N)=O)c4[nH]c5cc(N6CCCC6=O)ccc5c34)c1C)C2` [Example 66-16], 2 nM.
Same read-out and setting: in the case of `Cc1c(-c2ccc(C(N)=O)c3[nH]c4cc(NC(=O)C(C)(C)C)ccc4c23)cccc1N1Cc2cc(F)ccc2C1=O` [Example 66-34] it was 16 nM.
Regarding `Cc1ccc2c(c1)C(=O)N(c1cccc(-c3ccc(C(N)=O)c4[nH]c5cc(N6CCC(C)(C)C6=O)ccc5c34)c1C)C2` [Example 66-37], the IC50 is 15 nM.
On the same count and under the same terms, to `Cc1c(-c2ccc(C(N)=O)c3[nH]c4cc(NCC(O)CO)ccc4c23)cccc1N1Cc2ccccc2C1=O` (stereo not shown) [Example 67-1, 7-(2,3-dihydroxypropylamino)-4-(2-methyl-3-(1-oxoisoindolin-2-yl)phenyl)-9H-carbazole-1-carboxamide] belongs 2.2 nM.
As for `Cc1c(-c2ccc(C(N)=O)c3[nH]c4cc(C(O)CO)ccc4c23)cccc1N1Cc2ccc(F)cc2C1=O` (stereo not shown) [Example 70-9], the IC50 amounted to 1.5 nM.
With `Cc1c(-c2ccc(C(N)=O)c3[nH]c4cc(C(O)CO)ccc4c23)cccc1N1Cc2ccc(F)cc2C1=O` (stereo not shown) [Example 70-10], the IC50 worked out at 1 nM.
On the same count and under the same terms, in the case of `Cc1ccc2c(c1)C(=O)N(c1cccc(-c3ccc(C(N)=O)c4[nH]c5cc(C(O)CO)ccc5c34)c1C)C2` (stereo not shown) [Example 70-11, 7-(1,2-dihydroxyethyl)-4-(2-methyl-3-(6-methyl-1-oxoisoindolin-2-yl)phenyl)-9H-carbazole-1-carboxamide] it was 1.4 nM; in that of `CC(C)(O)C1CCc2c([nH]c3c(C(N)=O)ccc(Br)c23)C1` (stereo not shown) [Example 73-1, 5-bromo-2-(2-hydroxypropan-2-yl)-2,3,4,9-tetrahydro-1H-carbazole-8-carboxamide], 540 nM; in that of `Cc1c(-c2ccc(C(N)=O)c3[nH]c4cc(C(C)(C)O)ccc4c23)cccc1-n1ccn2ccnc2c1=O` [Example 76-2, 7-(2-hydroxypropan-2-yl)-4-(2-methyl-3-(8-oxoimidazo[1,2-a]pyrazin-7(8 H)-yl)phenyl)-9H-carbazole-1-carboxamide], 1.3 nM.
The same measure, in the same setting: in the case of `Cc1c(-c2ccc(C(N)=O)c3[nH]c4c(c23)CCC(C(C)(C)O)C4)cccc1-n1c(C)nc2ccccc2c1=O` (stereo not shown) [Example 76-10, 2-(2-hydroxypropan-2-yl)-5-(2-methyl-3-(2-methyl-4-oxoquinazolin-3(4H)-yl)phenyl)-2,3,4,9-tetrahydro-1H-carbazole-8-carboxamide] it was 18 nM; in that of `Cc1c(-c2ccc(C(N)=O)c3[nH]c4cc(C(C)(C)O)ccc4c23)cccc1N1Cc2ccncc2C1=O` [Example 76-18], 1.8 nM.
Still for that read-out and setting: to `Cc1c(-c2ccc(C(N)=O)c3[nH]c4c(c23)CCC(C(C)(C)O)C4)cccc1-n1cnc2cccc(F)c2c1=O` (stereo not shown) [Example 76-41] belongs 18 nM; to `Cc1c(-c2ccc(C(N)=O)c3[nH]c4c(c23)CCC(C(C)(C)O)C4)cccc1N1Cc2ccc(C(F)(F)F)cc2C1=O` (stereo not shown) [Example 76-44], 18 nM.
`Cc1c(NC(=O)c2nccs2)cccc1-c1ccc(C(N)=O)c2[nH]c3cc(N4CCN(C)CC4)ccc3c12` [Example 77-2, N-(3-(1-carbamoyl-7-(4-methylpiperazin-1-yl)-9H-carbazol-4-yl)-2-methylphenyl)thiazole-2-carboxamide]: the IC50 turned out to be 1.9 nM.
On the same count and under the same terms, to `Cc1c(NC(=O)c2nccn2C)cccc1-c1ccc(C(N)=O)c2[nH]c3cc(C(O)CO)ccc3c12` (stereo not shown) [Example 78-2] belongs 1.6 nM; to `Cc1ccc2c(Nc3cccc(-c4ccc(C(N)=O)c5[nH]c6cc(N7CCCC7=O)ccc6c45)c3C)ncnc2c1` [Example 79-2], 16.9 nM.
Still for that read-out and setting: in the case of `Cc1c(Nc2ncnc3ccc(F)cc23)cccc1-c1ccc(C(N)=O)c2[nH]c3cc(N4CCCC4=O)ccc3c12` [Example 79-3] it was 15 nM; in that of `Cc1c(Nc2ncnc3cc(F)ccc23)cccc1-c1ccc(C(N)=O)c2[nH]c3cc(N4CCCC4=O)ccc3c12` [Example 79-4], 16 nM.
Same read-out and setting: in the case of `Cc1c(-c2ccc(C(N)=O)c3[nH]c4cc(NC(C)C)ccc4c23)cccc1-n1ccn2ccnc2c1=O` [Example 80-1, 7-(isopropylamino)-4-(2-methyl-3-(8-oxoimidazo[1,2-a]pyrazin-7(8H)-yl)phenyl)-9H-carbazole-1-carboxamide] it was 1.9 nM.
For the compound `Cc1c(-c2ccc(C(N)=O)c3[nH]c4cc(C(C)(C)O)ccc4c23)cccc1-n1ccn2c(C)cnc2c1=O` [Example 81-3], the IC50 came to 1.9 nM.
Still for that read-out and setting: in the case of `Cc1c(-c2ccc(C(N)=O)c3[nH]c4cc(C(C)(C)O)ccc4c23)cccc1N1CCc2cc(F)ccc2C1=O` [Example 81-20] it was 2.2 nM.
Take `Cc1ccc2c(c1)C(=O)N(c1cccc(-c3ccc(C(N)=O)c4[nH]c5cc(C(COC(=O)C(C)N)OC(=O)C(C)N)ccc5c34)c1C)C2` (stereo not shown) [Example 83-3, 1-(8-carbamoyl-5-(2-methyl-3-(6-methyl-1-oxoisoindolin-2-yl)phenyl)-9H-carbazol-2-yl)ethane-1,2-diylbis(2-aminopropanoate)]: the IC50 came to 1.4 nM.
With `Cc1ccc2c(c1)C(=O)N(c1cccc(-c3ccc(C(N)=O)c4[nH]c5cc(C(O)COC(=O)C(C)N)ccc5c34)c1C)C2` (stereo not shown) [Example 83-4, 2-(8-carbamoyl-5-(2-methyl-3-(6-methyl-1-oxoisoindolin-2-yl)phenyl)-9H-carbazol-2-yl)-2-hydroxyethyl 2-aminopropanoate], the IC50 worked out at 1.1 nM.

What is called IC50 is the concentration that inhibits the measured activity by half.
